Legend:
[1] = biological target: T1, saccharase (Rattus norvegicus, UniProt P23739); test: In vivo saccharase inhibition (sucrose overfeeding test) in the fasting rat
T1 construct: from tissue; host or cells: intestine of the living rat (endogenous enzyme)
Method: The produce an alimentary hyperglycemia and hyperinsulinaemia, groups of 6 fasting rats are given (a) 2.5 g of sucrose, (b) 2.5 g of maltose or (c) 1 g of boiled starch orally, in aqueous solution or suspension. Six other rats are given the same carbohydrates in the same amount and a glycoside hydrolase inhibitor in the amount indicated. In addition, six other rats are given an appropriate volume of saline. The blood glucose and the serum insulin are then measured at short intervals of time, in the blood from the retro-orbital venous plexus. Blood glucose determinations are carried out in the Auto-Analyser device (Technicon), according to Hoffmann: J. biol.

[2] = biological target: T2, pancreas-α-amylase (Sus scrofa, UniProt P00690); test: In vitro amylase test; assay type: biochemical
T2 sequence (P00690 16-511): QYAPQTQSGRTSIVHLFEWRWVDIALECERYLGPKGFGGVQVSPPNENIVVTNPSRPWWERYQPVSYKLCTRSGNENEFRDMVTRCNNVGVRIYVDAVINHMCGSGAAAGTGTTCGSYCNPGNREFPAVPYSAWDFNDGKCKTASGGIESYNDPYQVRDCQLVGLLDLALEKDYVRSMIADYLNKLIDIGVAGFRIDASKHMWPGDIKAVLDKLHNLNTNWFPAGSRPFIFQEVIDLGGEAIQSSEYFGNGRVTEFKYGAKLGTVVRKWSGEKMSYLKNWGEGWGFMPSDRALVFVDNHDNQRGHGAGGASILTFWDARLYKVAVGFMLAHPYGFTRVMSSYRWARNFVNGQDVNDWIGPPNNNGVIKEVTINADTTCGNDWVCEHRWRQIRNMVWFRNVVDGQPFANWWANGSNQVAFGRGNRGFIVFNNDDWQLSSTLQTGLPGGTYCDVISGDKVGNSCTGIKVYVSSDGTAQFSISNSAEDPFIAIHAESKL
Method: One amylase inhibitor unit (1 AIU) is defined as the amount of inhibitor which inhibits two amylase units to the extent of 50%. One amylase unit (AU) is the amount of enzyme which under the test conditions specified below splits 1 μequivalent of glucoside bonds in the starch per minute. The μequivalents of split bonds are determined colorimetrically as μequivalents of reducing sugars formed, using dinitrosalicylic acid, and are quoted as μequivalents of maltose equivalents, using a maltose calibration curve. To carry out the test, 0.1 ml of amylase solution (20-22 AU/ml) are mixed with 0-10 μg of inhibitor or 0-20 μl of the solution to be tested in 0.4 ml of 0.02 M sodium glycerophosphate buffer/0.001 M CaCl2, pH 6.9, and the mixture is equilibrated for 10-20 minutes in a water bath at 35° C. The mixture is then incubated for 5 minutes at 35° C with 0.5 ml of a 1% strength starch solution which has been pre-warmed to 35° C (soluble starch No. 1,252 from Merck, Darmstadt), and thereafter 1 ml of dinitrosalicyclic acid reagent (according to P. bernfeld in Colowick-Kaplan, Meth. Enzymol., Volume l, page 149) is added. To develop the color, the batch is heated for 5 minutes on a boiling water bath and then cooled, and 10 ml of distilled water are added. The extinction at 540 nm is measured against a correspondingly made-up blank without amylase. […] The percentage inhibition is plotted as a function of the quotient [formula]

[3] = biological target: T3, saccharase (Sus scrofa, UniProt P56729); test: In vitro saccharase test; assay type: biochemical, pig
T3 construct: sucrase subunit of the sucrase-isomaltase complex hydrolyses sucrose
T3 sequence (P56729 with tags, fused parts or gaps): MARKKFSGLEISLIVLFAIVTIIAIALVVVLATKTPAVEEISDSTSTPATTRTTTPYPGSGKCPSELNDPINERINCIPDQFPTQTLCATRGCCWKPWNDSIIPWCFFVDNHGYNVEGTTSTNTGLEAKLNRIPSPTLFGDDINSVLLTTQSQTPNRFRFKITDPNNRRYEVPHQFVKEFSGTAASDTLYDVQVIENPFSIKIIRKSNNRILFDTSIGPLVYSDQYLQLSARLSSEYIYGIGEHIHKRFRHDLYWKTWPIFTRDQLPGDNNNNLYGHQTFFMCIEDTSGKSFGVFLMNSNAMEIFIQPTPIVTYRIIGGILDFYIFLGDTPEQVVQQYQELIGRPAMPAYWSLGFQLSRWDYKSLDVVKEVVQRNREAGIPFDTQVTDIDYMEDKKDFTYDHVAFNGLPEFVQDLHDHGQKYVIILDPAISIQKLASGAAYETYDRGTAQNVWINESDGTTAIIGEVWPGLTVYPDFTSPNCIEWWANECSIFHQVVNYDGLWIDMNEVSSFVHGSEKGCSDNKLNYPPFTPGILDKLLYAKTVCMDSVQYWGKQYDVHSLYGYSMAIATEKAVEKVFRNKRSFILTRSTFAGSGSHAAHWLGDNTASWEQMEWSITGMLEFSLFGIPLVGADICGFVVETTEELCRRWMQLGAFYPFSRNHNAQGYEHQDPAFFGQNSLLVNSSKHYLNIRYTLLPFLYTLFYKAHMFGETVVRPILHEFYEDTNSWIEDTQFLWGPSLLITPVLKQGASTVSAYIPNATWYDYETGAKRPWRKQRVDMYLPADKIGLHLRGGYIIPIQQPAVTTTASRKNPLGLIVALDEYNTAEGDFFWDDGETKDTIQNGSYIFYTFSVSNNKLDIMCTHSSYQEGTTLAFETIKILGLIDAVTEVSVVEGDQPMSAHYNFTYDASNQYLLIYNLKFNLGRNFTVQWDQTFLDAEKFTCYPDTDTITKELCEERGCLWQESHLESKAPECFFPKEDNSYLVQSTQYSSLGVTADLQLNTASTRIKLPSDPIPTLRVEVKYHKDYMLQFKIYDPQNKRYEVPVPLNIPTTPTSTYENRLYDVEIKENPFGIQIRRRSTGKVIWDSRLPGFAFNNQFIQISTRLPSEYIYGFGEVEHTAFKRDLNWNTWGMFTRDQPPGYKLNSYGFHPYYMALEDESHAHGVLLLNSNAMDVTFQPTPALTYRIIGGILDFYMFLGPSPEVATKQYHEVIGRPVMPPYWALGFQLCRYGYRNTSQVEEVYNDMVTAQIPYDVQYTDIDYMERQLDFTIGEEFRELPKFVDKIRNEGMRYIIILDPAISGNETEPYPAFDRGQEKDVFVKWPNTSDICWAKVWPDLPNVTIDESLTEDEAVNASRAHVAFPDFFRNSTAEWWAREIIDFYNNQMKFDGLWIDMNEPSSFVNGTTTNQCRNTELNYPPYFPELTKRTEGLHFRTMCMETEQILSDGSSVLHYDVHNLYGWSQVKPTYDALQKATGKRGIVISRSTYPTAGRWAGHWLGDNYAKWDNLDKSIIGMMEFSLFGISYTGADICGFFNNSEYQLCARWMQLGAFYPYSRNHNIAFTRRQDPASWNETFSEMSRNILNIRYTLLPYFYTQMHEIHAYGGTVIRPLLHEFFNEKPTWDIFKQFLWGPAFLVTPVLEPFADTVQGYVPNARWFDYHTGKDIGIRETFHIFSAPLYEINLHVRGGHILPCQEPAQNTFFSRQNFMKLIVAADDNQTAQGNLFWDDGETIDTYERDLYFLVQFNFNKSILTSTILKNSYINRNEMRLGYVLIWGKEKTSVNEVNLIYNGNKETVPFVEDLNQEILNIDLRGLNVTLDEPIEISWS

[4] = tested on: starch digestion; test: In vivo starch digestion inhibition (starch feeding test) in the fasting rat

T1 sequence (P23739 1014-1841 limits assumed): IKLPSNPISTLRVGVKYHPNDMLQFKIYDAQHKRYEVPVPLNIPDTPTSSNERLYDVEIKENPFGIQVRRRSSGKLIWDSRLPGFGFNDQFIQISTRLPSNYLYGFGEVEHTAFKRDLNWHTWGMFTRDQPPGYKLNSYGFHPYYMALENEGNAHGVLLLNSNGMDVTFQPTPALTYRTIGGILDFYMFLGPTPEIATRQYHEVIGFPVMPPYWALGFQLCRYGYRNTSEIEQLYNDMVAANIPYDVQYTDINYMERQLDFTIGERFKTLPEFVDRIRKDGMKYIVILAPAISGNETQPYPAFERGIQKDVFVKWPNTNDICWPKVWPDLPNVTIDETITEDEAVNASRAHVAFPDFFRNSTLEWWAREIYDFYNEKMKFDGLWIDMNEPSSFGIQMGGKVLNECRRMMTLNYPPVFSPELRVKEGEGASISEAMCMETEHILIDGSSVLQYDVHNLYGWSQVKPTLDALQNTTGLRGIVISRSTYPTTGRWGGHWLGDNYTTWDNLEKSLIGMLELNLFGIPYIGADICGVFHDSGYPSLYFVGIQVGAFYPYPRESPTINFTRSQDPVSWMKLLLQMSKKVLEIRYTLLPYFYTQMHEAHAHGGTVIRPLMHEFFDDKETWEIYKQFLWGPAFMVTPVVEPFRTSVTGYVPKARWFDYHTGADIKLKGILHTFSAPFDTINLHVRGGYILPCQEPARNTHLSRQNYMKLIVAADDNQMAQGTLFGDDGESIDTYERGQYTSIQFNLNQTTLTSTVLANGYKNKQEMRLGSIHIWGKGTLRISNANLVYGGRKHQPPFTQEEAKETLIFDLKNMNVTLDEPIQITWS
T1 sequence (P23739 2-1013 partner limits assumed): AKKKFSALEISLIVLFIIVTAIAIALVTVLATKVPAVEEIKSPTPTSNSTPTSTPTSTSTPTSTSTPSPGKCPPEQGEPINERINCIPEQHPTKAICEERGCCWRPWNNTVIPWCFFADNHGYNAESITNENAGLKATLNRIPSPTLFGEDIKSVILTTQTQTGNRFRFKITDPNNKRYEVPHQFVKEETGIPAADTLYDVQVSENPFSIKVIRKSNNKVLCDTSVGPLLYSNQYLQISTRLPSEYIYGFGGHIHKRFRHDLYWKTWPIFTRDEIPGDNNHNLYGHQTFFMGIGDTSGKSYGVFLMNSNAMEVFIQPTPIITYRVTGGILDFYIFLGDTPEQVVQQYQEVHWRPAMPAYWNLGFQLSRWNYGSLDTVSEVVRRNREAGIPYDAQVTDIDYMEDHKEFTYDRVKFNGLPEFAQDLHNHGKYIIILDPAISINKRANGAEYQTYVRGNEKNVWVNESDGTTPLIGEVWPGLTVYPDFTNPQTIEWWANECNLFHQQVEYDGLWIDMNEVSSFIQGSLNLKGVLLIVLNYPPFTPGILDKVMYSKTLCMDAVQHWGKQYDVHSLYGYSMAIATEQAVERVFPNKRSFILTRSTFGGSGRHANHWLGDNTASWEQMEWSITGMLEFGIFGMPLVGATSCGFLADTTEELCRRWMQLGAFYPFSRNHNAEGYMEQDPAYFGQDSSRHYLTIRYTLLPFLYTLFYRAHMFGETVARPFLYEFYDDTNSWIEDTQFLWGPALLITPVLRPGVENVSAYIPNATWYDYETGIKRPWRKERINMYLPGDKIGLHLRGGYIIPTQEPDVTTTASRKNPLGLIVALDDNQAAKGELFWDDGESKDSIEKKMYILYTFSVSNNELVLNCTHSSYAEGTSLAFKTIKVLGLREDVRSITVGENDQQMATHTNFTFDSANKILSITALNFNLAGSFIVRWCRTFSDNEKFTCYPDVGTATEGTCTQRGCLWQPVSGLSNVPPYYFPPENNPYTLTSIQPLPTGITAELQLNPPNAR

C[C@H]1O[C@H](O[C@H]2[C@H](O)[C@@H](O)[C@@H](O[C@H]3[C@H](O)[C@@H](O)C(O)O[C@@H]3CO)O[C@@H]2CO)[C@H](O)[C@@H](O)[C@@H]1N[C@H]1C=C(CO)[C@@H](O[C@H]2O[C@H](CO)[C@@H](O)[C@H](O)[C@H]2O)[C@H](O)[C@H]1O (stereo partly drawn) [Formula V, O-{4,6-bisdesoxy-4-[1 S-(1,4,6/5)-4,5,6-trihydroxy-3-hydroxymethyl-4-O-α-D-glucopyranosyl-(1→4)-cyclohex-2-en-1-ylamino]-α-D-glycopyranosyl}-(1→4)-O-α-D-glucopyranosyl-(1→4)-D-glucopyranose]
Blood Glucose (Mean ± SD) ([1]; 2.5 g sucrose + 25 SIU oral, 15 Min.): 88 ± 11.4 mg%
Blood Glucose (Mean ± SD) ([1]; 2.5 g sucrose + 25 SIU oral, 30 Min.): 101 ± 12.0 mg%
Blood Glucose (Mean ± SD) ([1]; 2.5 g sucrose + 25 SIU oral, 45 Min.): 104 ± 7.4 mg%
Blood Glucose (Mean ± SD) ([1]; 2.5 g sucrose + 50 SIU oral, 15 Min.): 91 ± 9.4 mg%
Blood Glucose (Mean ± SD) ([1]; 2.5 g sucrose + 50 SIU oral, 30 Min.): 106 ± 7.0 mg%
Blood Glucose (Mean ± SD) ([1]; 2.5 g sucrose + 50 SIU oral, 45 Min.): 94 ± 9.0 mg%
Blood Glucose (Mean ± SD) ([1]; 2.5 g sucrose + 100 SIU oral, 15 Min.): 81 ± 7.2 mg%
Blood Glucose (Mean ± SD) ([1]; 2.5 g sucrose + 100 SIU oral, 30 Min.): 90 ± 8.0 mg%
Blood Glucose (Mean ± SD) ([1]; 2.5 g sucrose + 100 SIU oral, 45 Min.): 97 ± 1.6 mg%
ED50 ([1]; read-out: Saccharase Inhibition (ED50 mg/kg), ED50, sucrose, fasting rat, Table IV, read-out: Saccharase Inhibition In Vitro (ED50 mg/kg)): 2.65 mg/kg
α-Amylase Inhibition ([2]; in vitro, Table II): 1,400,000 AIU/g
α-Amylase Inhibition In Vitro ([2]; in vitro, Table VI): 1,400 AIU/mg
amylase inhibiting activity of isolated product ([2]; isolated product of the Examples): 1.4 × 10^6 AIU/g
Saccharase Inhibition ([3]; in vitro, Table II): 21,000 SIU/g
Saccharase Inhibition In Vitro ([3]; in vitro, Table IV): 21 SIU/mg
saccharase inhibiting activity of isolated product ([3]; product of the Examples): 21,000 SIU/g
Blood Glucose (Mean ± SD) ([4]; 1 g starch + 750 AIU oral, 5 Min.): 86 ± 8.5 mg%
Blood Glucose (Mean ± SD) ([4]; 1 g starch + 750 AIU oral, 10 Min.): 107 ± 5.0 mg%
Blood Glucose (Mean ± SD) ([4]; 1 g starch + 750 AIU oral, 15 Min.): 117 ± 8.7 mg%
Blood Glucose (Mean ± SD) ([4]; 1 g starch + 750 AIU oral, 20 Min.): 121 ± 12 mg%
Blood Glucose (Mean ± SD) ([4]; 1 g starch + 750 AIU oral, 30 Min.): 126 ± 11 mg%
Blood Glucose (Mean ± SD) ([4]; 1 g starch + 750 AIU oral, 45 Min.): 114 ± 3.6 mg%
Blood Glucose (Mean ± SD) ([4]; 1 g starch + 1,500 AIU oral, 5 Min.): 77 ± 14 mg%
Blood Glucose (Mean ± SD) ([4]; 1 g starch + 1,500 AIU oral, 10 Min.): 92 ± 9.6 mg%
Blood Glucose (Mean ± SD) ([4]; 1 g starch + 1,500 AIU oral, 15 Min.): 94 ± 9.5 mg%
Blood Glucose (Mean ± SD) ([4]; 1 g starch + 1,500 AIU oral, 20 Min.): 113 ± 9.7 mg%
Blood Glucose (Mean ± SD) ([4]; 1 g starch + 1,500 AIU oral, 30 Min.): 112 ± 8.8 mg%
Blood Glucose (Mean ± SD) ([4]; 1 g starch + 1,500 AIU oral, 45 Min.): 111 ± 4.2 mg%
Blood Glucose (Mean ± SD) ([4]; 1 g starch + 3,000 AIU oral, 5 Min.): 65 ± 5.6 mg%
Blood Glucose (Mean ± SD) ([4]; 1 g starch + 3,000 AIU oral, 10 Min.): 101 ± 3.3 mg%
Blood Glucose (Mean ± SD) ([4]; 1 g starch + 3,000 AIU oral, 15 Min.): 82 ± 11 mg%
Blood Glucose (Mean ± SD) ([4]; 1 g starch + 3,000 AIU oral, 20 Min.): 112 ± 4.5 mg%
Blood Glucose (Mean ± SD) ([4]; 1 g starch + 3,000 AIU oral, 30 Min.): 109 ± 6.4 mg%
Blood Glucose (Mean ± SD) ([4]; 1 g starch + 3,000 AIU oral, 45 Min.): 104 ± 2.5 mg%
ED50 ([4]; ED50, starch, fasting rat, Table VI): 1.61 mg/kg
in vivo inhibition of starch digestion, in words ([4]; compared with expectation from in vitro amylase inhibition): much higher than would be expected

Source: patent publication US4062950A, “Amino sugar derivatives” (priority 1973, dated 1977)
